# Patent US20090004101A1, “Method and Means for Enhanced Pulmonary Drug Delivery” (UNIVERSITY COLLEGE CARDIFF CONSULTANTS LIMITED, priority 2004, published 2009)
# Assays:
# [1] = Pulmonary absorption of human insulin co-administered intratracheally with P2Y receptor agonists to anesthetized rabbits (plasma insulin by radioimmunoassay); format: in vivo, New Zealand white rabbits; conditions: for Effect of the P2Y agonist on t1/2, Cmax and F of insulin administered to the lungs: co-administered with insulin to rabbit lungs, summary in words; for Cmax of insulin / F (bioavailable fraction) of insulin / t1/2 of insulin: rabbit, mean±SD, n=4
# Description: Briefly, New Zealand white rabbits were anesthetized with Hypnovel (Roche, Welwyn Garden City, UK), 0.3 mg/kg i.v. via cannula in the ear, and Hypnorrn (Janssen Animal Health, Grove, Oxford, UK), 0.1 mg/kg via intramuscular injection. Once intubated with a polyethylene endotracheal tube (i.d. 4 mm, o.d. 5 mm; Portex, UK) coated with a layer of xylocalne gel (Astra Pharmaceuticals, Kings Langley, UK), a second, smaller polyethylene dosing tube was inserted inside the endotracheal tube to the point of the bifurcation of the trachea.
# [2] = EDTA co-administered; cited from earlier work
# [3] = insulin 10 U/kg intratracheal with Up4U 0.2 mg (2.0 mg/mL)
# [4] = insulin 10 U/kg intratracheal with Up4U 0.62 mg (6.2 mg/mL)
Cmax of insulin ([1]; insulin 10 U/kg intratracheal with UTP 0.34 mg (3.4 mg/mL)) [μU/mL],Cmax of insulin ([1]; insulin 10 U/kg intratracheal with UTP 1.5 mg (15 mg/mL)) [μU/mL],"Cmax of insulin [1, 3] [μU/mL]","F (bioavailable fraction) of insulin [1, 3] [%]","t1/2 of insulin [1, 3] [h]","Cmax of insulin [1, 4] [μU/mL]","F (bioavailable fraction) of insulin [1, 4] [%]","t1/2 of insulin [1, 4] [h]",SMILES,"Effect of the P2Y agonist on t1/2, Cmax and F of insulin administered to the lungs [1]",Effect on uptake of calcitonin following intratracheal administration to the lungs [2]
828 ± 42.4,1515 ± 297,,,,,,,"O=c1ccn([C@@H]2O[C@H](COP(=O)(O)OP(=O)(O)OP(=O)(O)O)[C@@H](O)[C@H]2O)c(=O)[nH]1 [UTP, uridine 5′-triphosphate]","increase the half life (t1/2), maximal plasma concentration (Cmax) and the overall bioavailable fraction (F) of insulin",
,,,,,,,,O=C(O)CN(CCN(CC(=O)O)CC(=O)O)CC(=O)O [EDTA],,did increase
,,531 ± 89.5,8.07 ± 3.40,1.33 ± 0.7102,655 ± 46.17,5.47 ± 1.03,0.798 ± 0.0372,"O=c1ccn([C@@H]2O[C@H](COP(=O)(O)OP(=O)(O)OP(=O)(O)OP(=O)(O)OC[C@H]3O[C@@H](n4ccc(=O)[nH]c4=O)[C@H](O)[C@@H]3O)[C@@H](O)[C@H]2O)c(=O)[nH]1 [Up4U, P^1,P^4-di(uridine 5′-)tetraphosphate]","increase the half life (t1/2), maximal plasma concentration (Cmax) and the overall bioavailable fraction (F) of insulin",
